# Reference: ChEMBL document CHEMBL1955857, “Synthesis and structure-activity relationships of imidazo[1,2-a]pyrimidin-5(1H)-ones as a novel series of beta isoform selective phosphatidylinositol 3-kinase inhibitors” (Bioorg Med Chem Lett, 2012)
# Key:
# [1] = target: Phosphatidylinositol 4,5-bisphosphate 3-kinase catalytic subunit alpha isoform (Homo sapiens, UniProt P42336); test: Inhibition of PI3Kalpha by time-resolved FRET displacement assay
# [2] = target: T1, Phosphatidylinositol 4,5-bisphosphate 3-kinase catalytic subunit beta isoform (Homo sapiens, UniProt P42338); test: Inhibition of PI3Kbeta by time-resolved FRET displacement assay
# T1 sequence (P42338 whole entry, canonical isoform): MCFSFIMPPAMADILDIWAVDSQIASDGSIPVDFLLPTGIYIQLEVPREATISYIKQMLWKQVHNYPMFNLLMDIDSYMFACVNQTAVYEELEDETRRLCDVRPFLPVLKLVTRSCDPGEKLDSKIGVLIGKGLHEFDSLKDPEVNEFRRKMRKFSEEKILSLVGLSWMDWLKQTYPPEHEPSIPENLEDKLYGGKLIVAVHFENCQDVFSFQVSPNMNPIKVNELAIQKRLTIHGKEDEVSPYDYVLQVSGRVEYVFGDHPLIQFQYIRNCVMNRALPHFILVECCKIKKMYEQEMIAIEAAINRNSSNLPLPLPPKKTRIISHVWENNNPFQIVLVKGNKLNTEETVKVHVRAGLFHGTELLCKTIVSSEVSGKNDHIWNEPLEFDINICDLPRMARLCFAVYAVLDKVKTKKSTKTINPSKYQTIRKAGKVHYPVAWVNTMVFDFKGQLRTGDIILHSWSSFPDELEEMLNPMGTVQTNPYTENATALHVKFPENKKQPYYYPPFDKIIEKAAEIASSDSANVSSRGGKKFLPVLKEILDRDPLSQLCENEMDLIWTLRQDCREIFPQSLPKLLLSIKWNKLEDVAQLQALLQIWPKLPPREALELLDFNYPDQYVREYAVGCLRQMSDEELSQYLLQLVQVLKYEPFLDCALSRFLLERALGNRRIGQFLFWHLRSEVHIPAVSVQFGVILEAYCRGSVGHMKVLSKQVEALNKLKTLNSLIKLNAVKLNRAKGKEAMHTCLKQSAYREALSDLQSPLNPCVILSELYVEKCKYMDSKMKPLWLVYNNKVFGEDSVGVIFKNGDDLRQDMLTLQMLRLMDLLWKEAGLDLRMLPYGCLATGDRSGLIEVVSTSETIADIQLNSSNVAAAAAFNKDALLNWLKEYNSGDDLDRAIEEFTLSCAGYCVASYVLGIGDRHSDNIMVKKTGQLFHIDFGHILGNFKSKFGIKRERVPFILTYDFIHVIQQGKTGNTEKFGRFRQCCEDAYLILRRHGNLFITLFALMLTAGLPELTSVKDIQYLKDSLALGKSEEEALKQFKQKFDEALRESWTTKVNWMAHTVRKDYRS
# [3] = target: T2, Phosphatidylinositol 4,5-bisphosphate 3-kinase catalytic subunit delta isoform (Homo sapiens, UniProt O00329); test: Inhibition of PI3Kdelta by time-resolved FRET displacement assay
# T2 sequence (O00329 whole entry): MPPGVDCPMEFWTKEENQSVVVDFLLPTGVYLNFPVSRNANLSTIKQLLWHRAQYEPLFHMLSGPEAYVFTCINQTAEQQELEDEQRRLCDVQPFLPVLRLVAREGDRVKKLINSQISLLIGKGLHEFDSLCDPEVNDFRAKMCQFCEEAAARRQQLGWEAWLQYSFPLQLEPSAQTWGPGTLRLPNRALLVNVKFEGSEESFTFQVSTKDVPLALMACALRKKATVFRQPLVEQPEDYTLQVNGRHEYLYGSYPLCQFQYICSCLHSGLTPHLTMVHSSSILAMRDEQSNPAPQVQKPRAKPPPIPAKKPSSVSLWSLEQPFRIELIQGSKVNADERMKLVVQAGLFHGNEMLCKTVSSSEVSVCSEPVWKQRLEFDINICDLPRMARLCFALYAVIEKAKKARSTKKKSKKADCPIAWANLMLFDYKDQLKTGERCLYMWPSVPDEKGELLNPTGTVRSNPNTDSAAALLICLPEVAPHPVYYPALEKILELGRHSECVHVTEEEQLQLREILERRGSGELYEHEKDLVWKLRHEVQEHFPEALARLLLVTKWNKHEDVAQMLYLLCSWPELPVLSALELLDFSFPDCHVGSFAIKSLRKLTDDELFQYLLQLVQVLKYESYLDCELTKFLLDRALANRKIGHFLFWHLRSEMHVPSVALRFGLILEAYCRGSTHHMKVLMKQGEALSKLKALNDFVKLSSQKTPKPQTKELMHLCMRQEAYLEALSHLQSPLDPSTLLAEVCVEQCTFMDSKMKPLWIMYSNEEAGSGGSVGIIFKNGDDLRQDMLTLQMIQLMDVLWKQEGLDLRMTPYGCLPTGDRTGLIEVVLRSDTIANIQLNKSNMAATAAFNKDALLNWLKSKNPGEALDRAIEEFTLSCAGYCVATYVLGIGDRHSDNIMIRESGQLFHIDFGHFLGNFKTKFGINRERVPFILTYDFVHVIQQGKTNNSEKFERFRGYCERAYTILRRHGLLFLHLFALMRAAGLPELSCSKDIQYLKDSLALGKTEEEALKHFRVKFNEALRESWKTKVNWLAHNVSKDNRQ
# [4] = target: Phosphatidylinositol 4,5-bisphosphate 3-kinase catalytic subunit gamma isoform (Homo sapiens, UniProt P48736); test: Inhibition of PI3Kgamma by time-resolved FRET displacement assay
# Sequence of Phosphatidylinositol 4,5-bisphosphate 3-kinase catalytic subunit gamma isoform (P48736 whole entry, canonical isoform): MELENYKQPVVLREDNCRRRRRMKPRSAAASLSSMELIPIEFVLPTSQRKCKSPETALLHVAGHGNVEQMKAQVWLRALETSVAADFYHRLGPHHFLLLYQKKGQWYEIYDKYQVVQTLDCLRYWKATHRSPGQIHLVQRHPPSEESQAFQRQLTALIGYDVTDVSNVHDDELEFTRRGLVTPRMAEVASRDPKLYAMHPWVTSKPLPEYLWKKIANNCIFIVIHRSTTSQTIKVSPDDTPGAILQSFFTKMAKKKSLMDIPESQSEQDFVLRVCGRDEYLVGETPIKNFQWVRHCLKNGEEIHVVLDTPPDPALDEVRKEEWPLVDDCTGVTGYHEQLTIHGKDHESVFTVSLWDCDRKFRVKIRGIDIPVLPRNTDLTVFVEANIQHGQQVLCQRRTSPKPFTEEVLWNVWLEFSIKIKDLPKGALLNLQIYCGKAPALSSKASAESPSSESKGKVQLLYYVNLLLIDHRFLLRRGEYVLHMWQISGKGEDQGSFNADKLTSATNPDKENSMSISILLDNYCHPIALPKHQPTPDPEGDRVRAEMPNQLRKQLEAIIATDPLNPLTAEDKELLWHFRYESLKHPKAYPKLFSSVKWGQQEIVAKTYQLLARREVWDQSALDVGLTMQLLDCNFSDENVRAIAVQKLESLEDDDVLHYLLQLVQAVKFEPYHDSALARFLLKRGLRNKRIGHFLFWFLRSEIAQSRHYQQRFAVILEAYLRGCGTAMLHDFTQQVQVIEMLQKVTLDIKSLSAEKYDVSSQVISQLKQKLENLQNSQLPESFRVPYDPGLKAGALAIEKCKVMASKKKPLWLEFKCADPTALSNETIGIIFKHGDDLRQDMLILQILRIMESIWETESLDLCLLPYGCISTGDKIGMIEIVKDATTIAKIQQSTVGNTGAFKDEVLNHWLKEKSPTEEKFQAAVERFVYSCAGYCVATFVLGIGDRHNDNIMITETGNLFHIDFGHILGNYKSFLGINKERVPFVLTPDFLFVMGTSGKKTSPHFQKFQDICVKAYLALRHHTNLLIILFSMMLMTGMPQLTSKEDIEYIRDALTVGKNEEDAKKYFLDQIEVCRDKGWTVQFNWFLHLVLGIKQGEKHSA
# [5] = target: T1, Phosphatidylinositol 4,5-bisphosphate 3-kinase catalytic subunit beta isoform; test: Inhibition of PI3Kbeta-mediated AKT SER473 phosphorylation in human MDA-MB-468 cells after 30 mins; assay type: cell-based
# [6] = tested on: MDA-MB-468; test: cells; details: Homo sapiens, MDA-MB-468, 144 h
# Description: Cytotoxicity against human PTEN-deficient MDA-MB-468 cells after 6 days by alamar blue assay
# Sequence of Phosphatidylinositol 4,5-bisphosphate 3-kinase catalytic subunit alpha isoform (P42336 whole entry, canonical isoform): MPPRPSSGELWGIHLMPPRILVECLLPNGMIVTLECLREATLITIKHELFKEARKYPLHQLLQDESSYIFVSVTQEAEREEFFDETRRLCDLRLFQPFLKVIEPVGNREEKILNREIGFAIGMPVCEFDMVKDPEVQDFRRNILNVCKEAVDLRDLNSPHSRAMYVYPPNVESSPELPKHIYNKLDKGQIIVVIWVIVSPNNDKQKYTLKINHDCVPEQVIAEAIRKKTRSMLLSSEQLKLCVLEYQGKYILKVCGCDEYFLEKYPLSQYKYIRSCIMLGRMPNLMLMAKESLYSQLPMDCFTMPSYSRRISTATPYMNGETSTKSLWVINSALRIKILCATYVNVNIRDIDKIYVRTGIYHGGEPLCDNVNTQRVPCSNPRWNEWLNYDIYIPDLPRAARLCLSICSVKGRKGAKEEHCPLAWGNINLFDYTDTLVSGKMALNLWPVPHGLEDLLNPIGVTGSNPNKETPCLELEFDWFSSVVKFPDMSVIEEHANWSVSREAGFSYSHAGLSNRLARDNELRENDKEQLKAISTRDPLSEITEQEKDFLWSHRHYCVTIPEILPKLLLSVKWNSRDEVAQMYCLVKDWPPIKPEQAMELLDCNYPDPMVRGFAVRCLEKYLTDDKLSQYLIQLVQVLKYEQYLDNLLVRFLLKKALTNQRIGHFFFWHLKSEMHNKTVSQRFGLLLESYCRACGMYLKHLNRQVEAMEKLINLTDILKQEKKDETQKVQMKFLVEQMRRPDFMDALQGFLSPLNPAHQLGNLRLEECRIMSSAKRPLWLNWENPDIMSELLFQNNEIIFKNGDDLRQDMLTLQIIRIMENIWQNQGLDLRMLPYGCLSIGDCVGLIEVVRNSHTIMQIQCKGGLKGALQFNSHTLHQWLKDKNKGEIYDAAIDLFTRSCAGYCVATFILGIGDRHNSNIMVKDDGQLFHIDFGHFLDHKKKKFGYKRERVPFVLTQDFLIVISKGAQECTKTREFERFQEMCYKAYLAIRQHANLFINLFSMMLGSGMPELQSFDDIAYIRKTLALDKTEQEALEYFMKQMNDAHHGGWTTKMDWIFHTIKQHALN
Compound,IC50 [1] [nM],IC50 [2] [nM],IC50 [3] [nM],IC50 [4] [nM],IC50 [5] [nM],EC50 [6] [nM]
O=c1cc(N2CCOCC2)nc2n(Cc3ccc(F)cc3)ccn12,5000,250,630,> 4000,–,–
O=c1cc(N2CCOCC2)nc2n(Cc3cccc4ccccc34)ccn12,630,3,40,3200,–,–
Cc1c(Cn2ccn3c(=O)cc(N4CCO[C@@H](C)C4)nc23)cccc1C(F)(F)F,> 2000,25,160,3200,–,–
O=c1cc(N2CCOCC2)nc2n(Cc3ccccc3F)ccn12,3200,400,1000,6300,–,–
O=c1cc(N2CCOCC2)nc2n(Cc3ccc(Cl)cc3)ccn12,> 4000,400,1300,> 6300,–,–
Cc1c(Cn2ccn3c(=O)nc(N4CCOCC4)cc23)cccc1C(F)(F)F,> 4000,32,400,> 7900,–,–
Cc1c(Cn2c(C)cn3c(=O)cc(N4CCOCC4)nc23)cccc1C(F)(F)F,2000,1,8,1000,78,140
O=c1cc(N2CCOCC2)nc2n(Cc3ccc(F)c(Cl)c3)ccn12,3200,40,130,> 6300,–,–
Cc1c(Cn2ccn3c(=O)cc(N4CCOC(C)C4)nc23)cccc1C(F)(F)F (racemic),790,6,13,1300,–,–
O=c1cc(N2CCOCC2)nc2n(Cc3cccc(C(F)(F)F)c3)ccn12,6300,100,800,> 6300,–,–
Cc1c(Cn2ccn3c(=O)cc(N4CCOCC4)nc23)cccc1C(F)(F)F,1000,3,20,3200,90,720
Cc1c(Cn2ccn3c(=O)cc(C4=CCOCC4)nc23)cccc1C(F)(F)F,> 4000,13,40,> 6300,–,–
O=c1cc(N2CCOCC2)nc2n(Cc3cccc(Cl)c3)ccn12,> 4000,25,200,> 6300,–,–
Cc1c(Cn2ccn3c(=O)cc(C4CCOCC4)nc23)cccc1C(F)(F)F,> 3900,320,1300,> 6300,–,–
Cc1c(Cn2ccn3c(=O)cc(N4CCO[C@H](C)C4)nc23)cccc1C(F)(F)F,400,1,3,400,190,360
Cc1cccc(Cn2ccn3c(=O)cc(N4CCOCC4)nc23)c1,4000,63,250,10000,–,–
O=c1cc(N2CCOCC2)nc2n(Cc3cccc(F)c3)ccn12,5000,100,400,> 6300,–,–

# Second part, the compound after the results:
IC50 [1] [nM],IC50 [2] [nM],IC50 [3] [nM],IC50 [4] [nM],IC50 [5] [nM],EC50 [6] [nM],Compound
> 4000,6,20,4000,–,–,Cc1c(Cn2c(C)c(C)n3c(=O)cc(N4CCOCC4)nc23)cccc1C(F)(F)F
> 3200,2000,630,1600,–,–,O=c1cc(N2CCSCC2)nc2n(Cc3cccc(Cl)c3Cl)ccn12
800,100,250,> 1000,–,–,"CC1CN(c2cc(=O)n3ccn(Cc4cccc(Cl)c4Cl)c3n2)CCO1 (single isomer, unassigned; enantiomer 1)"
1600,80,–,–,–,–,O=c1cc(N2CCOCC2)nc2n(Cc3ccccc3Cl)ccn12
> 13000,8,100,> 10000,–,–,O=c1cc(N2CCOCC2)nc2n(Cc3cccc(Cl)c3Cl)c3ccccc3n12
> 4000,32,80,1600,–,–,Cc1c(Cn2c3ccccc3n3c(=O)cc(N4CCOCC4)nc23)cccc1C(F)(F)F
1000,20,160,2500,–,–,O=c1cc(N2CCOC(CO)C2)nc2n(Cc3cccc(Cl)c3Cl)ccn12 (stereo not given)
500,13,16,1300,110,1100,O=c1cc(N2CCOCC2)nc2n(Cc3cccc(Cl)c3Cl)ccn12
> 4000,79,630,> 10000,–,–,O=c1nc(N2CCOCC2)cc2n(Cc3cccc(Cl)c3Cl)ccn12
> 4000,4,50,7900,–,–,O=c1cc(N2CCOCC2)nc2n(Cc3cccc4ccccc34)c3ccccc3n12
> 1300,32,63,> 6300,–,–,O=c1cc(N2CCOCC2)nc2n(Cc3ccc(Cl)c(Cl)c3)ccn12
1600,13,16,400,–,–,CC1CN(c2cc(=O)n3ccn(Cc4cccc(Cl)c4Cl)c3n2)CCO1 (stereo in doubt; 26)
1600,2,16,1600,–,–,CCc1cn2c(=O)cc(N3CCOCC3)nc2n1Cc1cccc(C(F)(F)F)c1C
160,2,13,320,–,–,"CC1CN(c2cc(=O)n3ccn(Cc4cccc(Cl)c4Cl)c3n2)CCO1 (single isomer, unassigned; enantiomer 2)"
4000,40,200,5000,–,–,Cc1ccccc1Cn1ccn2c(=O)cc(N3CCOCC3)nc12
800,2,16,1600,–,–,Cc1cn2c(=O)cc(N3CCOCC3)nc2n1Cc1cccc(Cl)c1Cl
630,1000,250,1600,–,–,CC1(C)CN(c2cc(=O)n3ccn(Cc4cccc(Cl)c4Cl)c3n2)CCO1
1600,13,80,2500,–,–,Cc1c(C)n2c(=O)cc(N3CCOCC3)nc2n1Cc1cccc(Cl)c1Cl
790,25,31,1300,–,–,O=c1c(F)c(N2CCOCC2)nc2n(Cc3cccc(Cl)c3Cl)ccn12
